Experimental data taken from patent US8580847B2, “Antrocin containing pharmaceutical compositions for inhibiting cancer cells” (Chaoyang University of Technology, priority 2010, dated 2013).

Tests used:
[1] = tested on: MCF-7 human breast carcinoma cells; assay: SRB cytotoxicity assay, MCF-7; type: cell-based
Protocol: (§1) MCF-7 and MDA-MB-231 breast tumor cell lines came from a pleural effusion of patients with invasive breast carcinoma. The MCF-10A cell line is a non-tumorigenic epithelial cell line. All three human cell lines were provided by the American Type Culture Collection (ATCC). In the present invention, MDA-MB-231 cells were grown in Dulbecco's Modified Eagle's Medium (DMEM) media with 10% FBS, 2 mM glutamine, 100 μg/ml streptomycin in a 37° C. humidified atmosphere with CO2. MCF-7 were cultured in DMEM media supplemented with 2 mM L-glutamine, 100 μg/ml streptomycin, 10% fetal bovine serum, 0.04 UI/ml insulin in a humidified atmosphere at 37° C. containing 5% CO2. MCF10A cells were maintained in DMEM containing 5% horse serum, 2 mM L-glutamine, 20 μg/ml gentamycin, 20 ng/ml epidermal growth factor, 100 ng/ml cholera toxin, 0.25 UI/ml insulin and 0.5 μg/ml hydrocortisone held at 37° C. with 5% CO2.
(§2) Antrocin was dissolved in DMSO at a concentration of 10 mM and was stored in a dark-colored bottle at −20° C. as a stock solution. The stock was diluted to the required concentration with serum-free medium immediately before use. […]
(§3) Briefly, three breast cancer cells (MDA-MB-231, MCF-7 & MCF-10A) were seeded into 96-well plates in growth medium at 3000 cells/well for 24 h. […] Optical densities were read on a microplate reader (Molecular Devices, Sunnyvale, Calif.) at 562 nm.

[2] = tested on: MDA-MB-231 cells; assay: Cell cycle analysis by PI flow cytometry; type: cell-based, human; conditions: 48 hr, MDA-MB-231 (FIG. 5)
Protocol: A total of 2×10^5 MDA-MB-231 cells/dish were seeded onto each 60 mm dish and incubated for 24 h. Various concentration of antrocin were added to the culture media, and the cells were incubated for an additional 48 hr. Cells were harvested and fixed in cold 75% ethanol at 4° C. for 16 h and incubated with 20 μg/ml RNase A at 37° C. for 30 min and then with 40 μg/ml propidium iodide (PI) at 4° C. for 30 min. Samples were immediately analyzed with a FACSCalibur flow cytometer (Becton, Dickinson and Co., San Jose, Calif). Approximately 10,000 counts were made for each sample. The percentage distributions of apoptotic cells were calculated by CellQuest™ software (Becton, Dickinson and Co., San Jose, Calif.).

[3] = tested on: MDA-MB-231 cells; assay: Cell morphology studies by phase microscopy; type: cell-based, human; conditions: 48 hr incubation, various concentration, phase-contrast microscope (FIG. 4)
Protocol: After treatment with different dose of antrocin for 48 hr, the MDA-MB-231 cells, cultured on glass coverslips, were washed three times with PBS, fixed with 3% paraformaldehyde for 10 min at room temperature, and then washed in PBS again, and the morphological changes were observed. Cell morphology was then observed by phase microscopy.

[4] = tested on: non-tumorgenic breast epithelial MCF-10A cells; assay: SRB assay, non-tumorgenic MCF-10A cells; type: cell-based, human; conditions: SRB assay (FIG. 2)
Protocol: as §1, §2, §3

[5] = tested on: human cancer cell lines (HT-29, HCT116, Huh7, A549, MCF7, MDA-MB-231); assay: SRB anti-proliferative assay on human cancer cell lines; type: cell-based
Protocol: Antrocin was dissolved in DMSO at a concentration of 10 mM and was stored in a dark-colored bottle at −20° C. as a stock solution. The stock was diluted to the required concentration with serum-free medium immediately before use. Before treatment with antrocin, the medium was removed when cells were about 70% confluent, the cells were starved overnight in serum-free medium and then exposed to antrocin at different concentrations (0-10 μM) and for different periods of time (0-48 h).
(§4) Briefly, three breast cancer cells (MDA-MB-231, MCF-7 & MCF-10A) were seeded into 96-well plates in growth medium at 3000 cells/well for 24 h. Then, the cells were treated with antrocin at various concentrations (0, 0.5, 1, 3, 5 and 10 μM) for various periods of time. After the exposure period, the cells were fixed with TCA for 1 hour and stained with 100 μL of 0.4% (w/v) SRB for 10 minutes at room temperature. The bound dye was solubilized in 20 mM Tris base (100 μL/well) for 5 minutes on a shaker. Optical densities were read on a microplate reader (Molecular Devices, Sunnyvale, Calif.) at 562 nm.
(§5) The anti-proliferative effects of antrocin were assessed on human cancer cell lines, using the SRB assay, with normal foreskins fibroblast HS68 cells and non-tumorgenic breast epithelial MCF-10A cells as controls.

[6] = tested on: MDA-MB-231 human breast cancer cells; assay: SRB cytotoxicity assay, MDA-MB-231; type: cell-based
Protocol: as §1, §2, §3

[7] = tested on: normal foreskins fibroblast HS68 cells; assay: SRB assay, normal HS68 cells; type: cell-based, human; conditions: SRB assay (FIG. 2)
Protocol: as §4, §5

C=C1CCC2C(C)(C)CCCC23C(=O)OCC13 (centres unmarked) [antrocin]
cell growth inhibition, MDA-MB-231 compared with MCF-7 [1]: more effective in MDA-MB-231 cells in comparison with MCF-7
progression to apoptosis (apoptotic cells) ([2]; 10 μM antrocin): 58.3%
cell cycle distribution ([2]; different dose): accumulated progressively in subG1 phase
morphological alterations [3]: cell shrinkage, membrane blebbing, apoptotic body formation
antiproliferative effect / growth inhibition on MCF-10A cells [4]: no antiproliferative effect
antiproliferative effect / growth inhibition on MCF-10A cells ([4]; listed as Antrocin): no significant inhibition
inhibition activity to cancer cell lines ([5]; HT-29, HCT116, Huh7, A549, MCF7, MDA-MB-231): high inhibition activity
growth of cancer cells ([5]; SRB assay, all cancer cells tested (FIG. 1)): inhibited in a concentration-dependent manner
cell growth inhibition compared with doxorubicin or cisplatin ([6]; MDA-MB-231, 48 hr treatment, same dosage (FIG. 3)): more potent than doxorubicin or cisplatin
MDA-MB-231 cell growth ([6]; antrocin concentration of 0.5 μM): significantly inhibited
antiproliferative effect on HS68 cells [7]: no antiproliferative effect
